Reference: patent US5679675A, “8-amino-10-(azabicycloalkyl)-pyrido[1,2,3-d,e][1,3,4]benzoxadiazine derivatives” (Bayer Aktiengesellschaft, priority 1994, dated 1997)
In brackets after ≈: the same amount, converted by molar mass. Read-outs that look alike come from different tables or passages of the source.

Columns and labels:
Assay in all cases: MIC, serial dilution method on Iso-Sensitest agar
Format in all cases: cell-based
Acinetobacter = settings: strain 14068, 37° C., about 20 hours
Procedure: (§1) The minimum inhibitory concentrations (MIC) of the compounds according to the invention were determined by serial dilution methods on Iso-Sensitest agar (Oxoid). For each test substance, a series of agar plates was prepared which contained decreasing concentrations of the active compound at, in each case, double dilution. The agar plates were inoculated with a multipoint inoculator (Denley). For inoculation, overnight cultures of the pathogens were reed which had previously been diluted such that each inoculation point contained about 10^4 colony-forming particles. The inoculated agar plates were incubated at 37° C., and the growth of microorganism was read off after about 20 hours. The MIC value (μg/ml) indicates the lowest active compound concentration at which no growth was to be detected with the naked eye.

Providencia sp. = settings: 20 h, about 20 hours
Procedure: as §1

Enterococcus faecalis = settings: 20 h, about 20 hours
Procedure: as §1

E. coli = settings: Escherichia coli, 37° C., about 20 hours
Procedure: as §1

Staphylococcus aureus = settings: about 20 hours
Procedure: as §1

Klebsiella pneumoniae = settings: 37° C., about 20 hours
Procedure: as §1

Micrococcus luteus = settings: strain 9341, 37° C., about 20 hours
Procedure: as §1

[1] = ATCC29213, 20 h, strain ATCC 29213, 37° C.
[2] = Klebsiella pneumoniae, strain 8085, read-out: MIC

Row | Compound | MIC (Acinetobacter) | MIC (Providencia sp.; strain 12012, 37° C.) | MIC (Providencia sp.; strain 12052, 37° C.) | MIC (Enterococcus faecalis; strain 9790, 37° C.) | MIC (Enterococcus faecalis; strain 27101, 37° C.) | MIC (E. coli; ATCC25922, strain ATCC 25922) | MIC (E. coli; strain Neumann) | MIC (Staphylococcus aureus; 20 h, strain 133, 37° C.) | MIC (Staphylococcus aureus; 20 h, strain ICB 25701, 37° C.) | MIC (Staphylococcus aureus; 20 h, strain ICB 25768, 37° C.) | MIC (Staphylococcus aureus; [1]) | MIC (Klebsiella pneumoniae; [2]) | MIC (Klebsiella pneumoniae; strain 63) | MIC (Micrococcus luteus)
1 | CN1COc2c(N3C[C@H]4[C@H](N)CC=C[C@H]4C3)c(F)c(N)c3c(=O)c(C(=O)O)cn1c23 (relative stereo) [Example 11, 8-Amino-10-((1SR,2RS,6RS)-2-amino-8-azabicyclo[4.3.0]non-4-en-8-yl)-9-fluoro-3-methyl-7-oxo-2,3-dihydro-7H-pyrido[1,2,3-d,e][1,3,4]benzoxadiazine-6-carboxylic acid] | ≤ 0.015 µg/mL | ≤ 0.015 µg/mL | 16 µg/mL (≈ 38.5 µM) | ≤ 0.015 µg/mL | ≤ 0.015 µg/mL | ≤ 0.015 µg/mL | ≤ 0.015 µg/mL | ≤ 0.015 µg/mL | 0.5 µg/mL (≈ 1.2 µM) | 16 µg/mL (≈ 38.5 µM) | ≤ 0.015 µg/mL | ≤ 0.015 µg/mL | ≤ 0.015 µg/mL | 0.5 µg/mL (≈ 1.2 µM)
2 | CNC1C=CCC2CN(c3c(F)c(N)c4c(=O)c(C(=O)O)cn5c4c3OCN5C)CC21 (centres unmarked) [Example 4, 8-Amino-9-fluoro-3-methyl-10-(2-methylamino-8-azabicyclo[4.3.0]non-3-en-8-yl)-7-oxo-2,3-dihydro-7H-pyrido[1,2,3-d,e][1,3,4]benzoxadiazine-6-carboxylicacid] | ≤ 0.015 µg/mL | 0.06 µg/mL (≈ 0.14 µM) | 4 µg/mL (≈ 9.31 µM) | 0.06 µg/mL (≈ 0.14 µM) | 0.06 µg/mL (≈ 0.14 µM) | 0.03 µg/mL (≈ 0.0699 µM) | 0.03 µg/mL (≈ 0.0699 µM) | ≤ 0.015 µg/mL | 0.5 µg/mL (≈ 1.16 µM) | 1 µg/mL (≈ 2.33 µM) | ≤ 0.015 µg/mL | 0.06 µg/mL (≈ 0.14 µM) | 0.06 µg/mL (≈ 0.14 µM) | ≤ 0.015 µg/mL
3 | CN1COc2c(N3CC4CC=CC(N)C4C3)c(F)c(N)c3c(=O)c(C(=O)O)cn1c23 (centres unmarked) [Example 5, 8-Amino-10-(2-amino-8-azabicyclo[4.3.0]non-3-en-8-yl)-9-fluoro-3-methyl-7-oxo-2,3-dihydro-7H-pyrido[1,2,3-d,e][1,3,4]benzoxadiazine-6-carboxylic acid] | ≤ 0.015 µg/mL | ≤ 0.015 µg/mL | 2 µg/mL (≈ 4.81 µM) | 0.03 µg/mL (≈ 0.0722 µM) | 0.03 µg/mL (≈ 0.0722 µM) | ≤ 0.015 µg/mL | ≤ 0.015 µg/mL | ≤ 0.015 µg/mL | 0.125 µg/mL (≈ 0.301 µM) | 0.25 µg/mL (≈ 0.602 µM) | ≤ 0.015 µg/mL | 0.03 µg/mL (≈ 0.0722 µM) | 0.03 µg/mL (≈ 0.0722 µM) | ≤ 0.015 µg/mL
4 | CC1C=CC(N)C2CN(c3c(F)c(N)c4c(=O)c(C(=O)O)cn5c4c3OCN5C)CC12 (centres unmarked) [Example 7, 8-Amino-10-(2-amino-5-methyl-8-azabicyclo[4.3.0]non-3-en-8-yl)-9-fluoro-3-methyl-7-oxo-2,3-dihydro-7-H-pyrido[1,2,3-d,e][1,3,4]benzoxadiazine-6-carboxylic acid] | ≤ 0.015 µg/mL | 0.03 µg/mL (≈ 0.0699 µM) | 2 µg/mL (≈ 4.66 µM) | 0.03 µg/mL (≈ 0.0699 µM) | ≤ 0.015 µg/mL | ≤ 0.015 µg/mL | ≤ 0.015 µg/mL | ≤ 0.015 µg/mL | 0.25 µg/mL (≈ 0.582 µM) | 0.5 µg/mL (≈ 1.16 µM) | ≤ 0.015 µg/mL | 0.03 µg/mL (≈ 0.0699 µM) | 0.03 µg/mL (≈ 0.0699 µM) | ≤ 0.015 µg/mL
